How the values were obtained:
PC-3 = assay: CTG cell survival assay, PC-3; type: cell-based; conditions: Homo sapiens, PC-3 cells
Outline: (§1)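 Cells were exposed to compounds in a 3-fold dilution series, with a top final concentration of 10 uM in 0.1% DMSO. Viable cells were quantified by CellTiter-Glo ATP luminescence.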

MV-4-11 = assay: CTG cell survival assay, MV-4-11; type: cell-based; conditions: Homo sapiens, MV4-11, MV-4-11 cells
Outline: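 Cells grown in RPMI 1640 with 10% FBS were plated and cultured 24 h at 37 °C, 5% CO2, then treated with compound diluted from 10 mM DMSO stocks. Viable cells were quantified as ATP by CellTiter-Glo luminescence.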

SK-BR3/BT474 = assay: CTG cell survival assay, SK-BR3/BT474; type: cell-based; conditions: SK-BR3/BT474 cells
Outline: as §1

[1] = Pharmacokinetics after oral administration, Balb/c mice; type: in vivo; conditions: mouse, plasma, 10 mg/kg
Experimental: (§2) 4. […] Blood was sampled before the administration and at 0.25 h, 0.5 h, 1 h, 2 h, 4 h, 6 h, 8 h, and 24 h after the administration.

[2] = Pharmacokinetics after oral administration, SD rat; type: in vivo; conditions: plasma, 10 mg/kg
Experimental: as §2

| Structure (SMILES) | EC50 (PC-3) [nM] | EC50 (MV-4-11) [nM] | EC50 (SK-BR3/BT474) [nM] | AUC [1] [ng·h/mL] | Cmax [1] [ng/mL] | half-life [1] [h] | concentration at 6 h ([1]; 6 h) [µM] | AUC [2] [ng·h/mL] | Cmax [2] [ng/mL] | half-life [2] [h] | concentration at 6 h [2] [µM] |
| --- | --- | --- | --- | --- | --- | --- | --- | --- | --- | --- | --- |
| Cn1cc(-c2ccc(-c3ccc4ncc5c(c4c3)n(C3CCCN(S(C)(=O)=O)C3)c(=O)n5C)cn2)cn1 (stereo not drawn) [Example 3, 3-methyl-8-(6-(1-methyl-1H-pyrazol-4-yl)pyridin-3-yl)-1-(1-(methanesulfonyl)piperidin-3-yl)-1H-imidazo[4,5-c]quinolin-2(3H)-one] | < 50 | < 200 | < 100 | – | – | – | – | – | – | – | – |
| Cn1cc(-c2ccc(-c3ccc4ncc5c(c4c3)n([C@H]3CC[C@@H](O)CC3)c(=O)n5C)cn2)cn1 [Example 18, 1-((1s,4s)-4-hydroxycyclohexyl)-3-methyl-8-(6-(1-methyl-1H-pyrazol-4-yl)pyridin-3-yl)-1H-imidazo[4,5-c]quinolin-2(3H)-one] | < 50 | < 100 | < 50 | 10000 to 100000 | 5000 to 10000 | 1 to 4 | 1 to 10 | – | – | – | – |
| Cn1cc(-c2ccc(-c3ccc4ncc5c(c4c3)n([C@H]3CCN(S(C)(=O)=O)C3)c(=O)n5C)cn2)cn1 [Example 28, (S)-3-methyl-8-(6-(1-methyl-1H-pyrazol-4-yl)pyridin-3-yl)-1-(1-(methanesulfonyl)pyrrolidin-3-yl)-1H-imidazo[4,5-c]quinolin-2(3H)-one] | < 50 | < 100 | < 50 | – | – | – | – | 10000 to 100000 | 800 to 4000 | 4 to 10 | 1 to 10 |
| Cn1cc(-c2ccc(-c3ccc4ncc5c(c4c3)n([C@@H]3CCCN(S(C)(=O)=O)C3)c(=O)n5C)cn2)cn1 [Example 31, (R)-3-methyl-8-(6-(1-methyl-1H-pyrazol-4-yl)pyridin-3-yl)-1-(1-(methanesulfonyl)piperidin-3-yl)-1H-imidazo[4,5-c]quinolin-2(3H)-one] | 19 | < 100 | < 100 | – | – | – | – | 10000 to 100000 | 800 to 4000 | 4 to 10 | 1 to 10 |
